Data on two molecules can be found in patent publication US12324805B2, “Cancer treatment” (LDN Pharma Limited, priority 2017, dated 2025).

“Also recorded” adds a separate entry of the source.

Assay [1] relates to MCF7 cells. Nature of the assay: Two-stage sequential treatment of MCF7 cells, cell number and viability (trypan blue). In kind it is cell-based. Conditions: LDN (10 nM) or 6BN (10 μM) for 48 h, then cannabinoid (cannabidiol 10 μM) for 48 h, compared with other sequences. The procedure:
Each treatment lasted four days and consisted of two days of treatment with the first agent (UN=control, LDN=Low Dose Naltrexone at 10 nM CBD=Cannabidiol, 6BN=6-β-naltrexol) before the second-named agent was introduced for a further two days.
Another illustrative and non-limiting experiment was carried out on cultures of MCF7 cells. In brief, the cultures were treated with LDN or 6BN for two days, after which a cannabinoid was administered for a further two days. Cell number and viability were assessed on day four. The sequence of the administration for each therapeutic agent was reversed and the experiment repeated.
In full, MCF7 cells were seeded into 6-well plates at a density of 1.5×10^4/well and left to adhere. Cells were then cultured with naltrexone (10 nM), 6-β-naltrexol (10 μM) or cannabidiol (10 μM). Drug-containing media was removed after 48 h, and cells were rinsed gently with drug-free medium. Fresh culture medium was then added to the cells supplemented with either naltrexone (10 nM), 6-β-naltrexol (10 μM) or cannabidiol (10 μM), as indicated in the graph. Cell number and viability were assessed a further 48 h later, with percentages of live and dead cells being discriminated by trypan blue dye exclusion. Data were then consolidated to compare the effect of sequence on overall effect.

In assay [2] the test system is CB2. As to the kind of experiment: Western blot of CB2 levels in MCF7 cells after drug treatment. The following applies: two days; for levels of CB2 relative to controls: LDN 10 nM, 6BN 1 μM or 10 μM, Western blot densitometry normalised to GAPDH, vs no-drug controls. In kind it is cell-based. The procedure:
Levels of Bcl2-associated death promoter (BAD), p21 protein, the opioid receptors kappa 1 (OPRK1) and mu 1 (OPRM1), and the cannabinoid receptors CBR1 (CB1) and CBR2 (CB2) are visualised by Western blot (left) against GAPDH as a loading control, and quantified via density analysis relative to GAPDH (right).
One illustrative and non-limiting experiment was carried out on cultures of MCF7 cells. In brief, either LDN at 10 nM or 6BN at 1 μM or 10 μM was administered in vitro to a culture for two days, after which the expression levels of BAD, p21, opioid receptors kappa and mu, CB1, CB2, and GAPDH (as a loading control) were analysed via Western blot and subsequent quantification via density measurement of the bands.
In full, MCF7 cells were seeded into 6-well plates at a density of 1×10^5/well and left to adhere over-night. Naltrexone (10 nM) or 6-β-naltrexol (1 μM or 10 μM) were added to the cells before harvesting cells for western blot analysis. Primary probing was performed with specific antibodies generated against BAD, p21, OPRK1, […], CBR-1 and CBR-2. […] Anti-GAPDH was used as a loading control. All antibodies were used at a dilution of 1:1000, followed by the appropriate HRP conjugated secondary antibodies also at a dilution of 1:1000. Bands were visualised by the SuperSignal chemiluminescent detection system, and densitometry of band intensity was determined using Adobe Photoshop CS3, v10.0, and normalised to the loading control.

Consider `Oc1ccc2c3c1OC1C(O)CC[C@@]4(O)[C@@H](C2)N(CC2CC2)CC[C@]314` (some centres unmarked) [6BN, N-cyclopropylmethyl-7,8-dihydro-14-hydroxynorisomorphine], for which the “inhibition of cancer cell proliferation, effect of schedule” value in assay [1] is on record as “most effective; also recorded: greater effect”. Also, in assay [2] (10 μM 6BN compared with 1 μM 6BN and 10 nM LDN), the “rise in CB2 compared among the three treatments” value is recorded as “highest”. In assay [2], the “levels of CB2 relative to controls” value is “significant increase”.
With `O=C1CC[C@@]2(O)[C@H]3Cc4ccc(O)c5c4[C@@]2(CCN3CC2CC2)[C@H]1O5` [LDN, 17-cyclopropylmethyl-4.5α-epoxy-3,14-dihydroxymorphinan-6-one], the “inhibition of cancer cell proliferation, effect of schedule” value in assay [1] is “most effective; also recorded: more effectively; also recorded: greater effect”. Besides, in assay [2], the “levels of CB2 relative to controls” value is reported as “significant increase; also recorded: increased significantly”.
